Several values for one entry are separate records, joined by “and”; a condition that tells them apart may be missing. Equal entries are not always repeated.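 Briefly, cells in 96-well plates were exposed to five compound concentrations for 48 h, and endpoints were estimated by linear interpolation. At the GI50, growth is halved. TGI: total growth inhibition.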
Columns and labels:
Experiment in all cases: NCI anticancer screen, dose series, 48 h
SK-OV-3 ovarian = system: SK-OV-3 ovarian
SN12C renal = system: SN12C renal
OVCAR-4 ovarian = system: OVCAR-4 ovarian
MDA-MB-435 = system: MDA-MB-435
OVCAR-8 ovarian = system: OVCAR-8 ovarian
SR leukemia = system: SR leukemia
UACC-62 melanoma = system: UACC-62 melanoma
DU-145 prostate = system: DU-145 prostate
SK-MEL-28 melanoma = system: SK-MEL-28 melanoma
MALME-3M melanoma = system: MALME-3M melanoma

SMILES	GI50 (SK-OV-3 ovarian) [µM]	TGI (SK-OV-3 ovarian)	GI50 (SN12C renal) [µM]	TGI (SN12C renal)	GI50 (OVCAR-4 ovarian) [µM]	TGI (OVCAR-4 ovarian)	GI50 (MDA-MB-435) [µM]	TGI (MDA-MB-435)	GI50 (OVCAR-8 ovarian) [µM]	TGI (OVCAR-8 ovarian)	GI50 (SR leukemia) [µM]	TGI (SR leukemia) [µM]	GI50 (UACC-62 melanoma) [µM]	TGI (UACC-62 melanoma)	GI50 (DU-145 prostate) [µM]	TGI (DU-145 prostate)	GI50 (SK-MEL-28 melanoma) [µM]	TGI (SK-MEL-28 melanoma)	GI50 (MALME-3M melanoma) [µM]	TGI (MALME-3M melanoma)
COc1ccc(-c2cnc(-c3ccc(F)cc3)[nH]2)cc1	16.5	> 66.4 µM	8.34	23.7 µM	10.1	> 35.3 µM	1.96	5.27 µM	7.85	21.1 µM	2.41	6.27	19.4	> 50 µM	2.59	7.59 µM	3.69	8.5 µM	6.12	22.4 µM
COc1ccc2cc(C(=O)/C=C/c3cccc(Cl)c3Cl)ccc2c1	24.7	> 62.4 µM	5.67	32.3 µM	44.6	> 100 µM	1.44	29.6 µM	14.9	> 100 µM	0.806	> 100	4.08	28.4 µM	9.57	> 55.9 µM	22.7	> 71.9 µM	> 100	> 100 µM
Nc1c(C(=O)c2cccc(OCCN3CCOCC3)c2)cnn1-c1ccc(F)cc1	> 25	> 25 µM	> 25	> 25 µM	> 25	> 25 µM	> 25	> 25 µM	> 25	> 25 µM	> 25	> 25	> 25	> 25 µM	> 25	> 25 µM	> 25	> 25 µM	> 25	> 25 µM
Cc1ccc(S(=O)(=O)Oc2ccc3c4c(c(=O)oc3c2)CCCCC4)cc1	> 100	> 100 µM	> 100	> 100 µM	7.11	> 100 µM	> 100	> 100 µM	> 100	> 100 µM	3.3	> 100	5.72	> 100 µM	> 100	> 100 µM	> 100	> 100 µM	> 100	> 100 µM
C(CCc1nnc2c(n1)CCCC2)Cc1nnc2c(n1)CCCC2	–	> 100 µM	–	> 100 µM	–	> 100 µM	–	> 100 µM	–	> 100 µM	–	> 100	–	> 100 µM	–	> 100 µM	–	> 100 µM	–	> 100 µM
CN(C)CCNC(=O)c1cccc2cc3ccccc3nc12	1.03	11 µM	1.84	> 19.9 µM	2.11	4.99 µM	1.86	6.67 µM	0.62	7.73 µM	0.338	8.1	1.42	3.25 µM	1.8	4.37 µM	1.97	4.41 µM	1.4	3.34 µM
COC(=O)c1ccc(=O)c2nc3/c(=C/O)c(O)cc(=O)c3[nH]c12	2.62	16.4 µM and 20.8 µM	0.44	20 µM and 12.8 µM	3.58	31.4 µM and 29.8 µM	0.559	23.7 µM and 13.2 µM	0.364	2.95 µM and 24.9 µM	0.361	> 64.9	1.01	7.26 µM and 7.01 µM	–	16.5 µM and 17.6 µM	4.17	19.8 µM and 21.1 µM	3.16	11.1 µM and 18.6 µM
CS(=O)(=O)N1CCN(Cc2cc3nc(-c4cccc5[nH]ncc45)nc(N4CCOCC4)c3s2)CC1 (tested in a mixture with another compound)	0.0559	0.328 µM	0.0898	–	0.514	–	0.0425	0.211 µM	0.154	–	0.194	–	0.105	0.706 µM	0.0837	–	0.21	–	0.139	1.99 µM
C=C(CNCCc1ccc(O)cc1)[C@@H]1CC[C@]2(CO)CC[C@]3(C)[C@H](CC[C@@H]4[C@@]5(C)CCC(=O)C(C)(C)[C@@H]5CC[C@]43C)[C@@H]12	1.79	3.51 µM	1.65	3.12 µM	1.65	3.12 µM	1.74	3.22 µM	1.73	3.16 µM	1.3	4.17	1.69	3.09 µM	1.77	3.15 µM	1.7	3.14 µM	1.65	3.25 µM
COc1cc2c3c(n(CCN)c(=O)c2cc1OC)-c1cc2c(cc1C3=O)OCO2	2.57	> 100 µM	0.254	1.3 µM	1.43	3.02 µM	1.04	2.78 µM	1.12	–	1.56	> 100	0.134	1.51 µM	0.0401	1.13 µM	1.55	3.44 µM	0.24	6.12 µM
NC(=O)c1[nH]nc(C2OC(CO)C(O)C2O)c1O (stereo not given)	–	460 µM	–	819 µM	–	520 µM	–	469 µM	–	212 µM	–	> 232	–	579 µM	–	> 5000 µM	–	> 5000 µM	–	2660 µM
C=C1C(=O)O[C@H]2[C@H]1CC/C(COC(=O)C(=O)c1c[nH]c3ccc(OC)cc13)=C\CC[C@@]1(C)O[C@@H]21	19.8	35.1 µM	6.1	12.2 µM	6.93	21.4 µM	5.52	10.8 µM	6.88	19.4 µM	3.29	29	3.21	7.49 µM	7.99	17 µM	5.05	9.55 µM	6.43	11 µM
Cn1ccc(=Nc2ccc(NC(=O)c3ccc(N=c4ccn(C)c5ccc([N+](=O)[O-])cc45)cc3)cc2)cc1	> 100	> 100 µM	5.09	> 100 µM	–	–	6.53	> 100 µM	> 100	> 100 µM	33	> 100	17.8	> 100 µM	4.43	> 100 µM	22.9	92.3 µM	2.41	37.9 µM

— PubChem BioAssay (NCI)
